What was measured:
Format in all cases: in vivo
barnyardgrass [1] = assay: Test Example 1: herbicidal effects in preemergence treatment under submerged conditions; conditions: dose 2.52 g/a
How it was run: (§1)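 Score 0–5 by mortality (5: ≥90%; 0: <5%), read 3 weeks post-application. Paddy-type cups: alluvial soil under 4 cm water, weeds seeded plus transplanted 2.5-leaf rice; diluted EC dosed onto water surface same day as sowing, g/a basis; greenhouse 25 to 30° C.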

bulrush [2] = assay: as above; conditions: dose 2.52 g/a
How it was run: as §1

ducksalad [3] = assay: as above; conditions: dose 2.52 g/a
How it was run: as §1

transplanted rice = assay: Test Example 1: preemergence treatment under submerged conditions, effect on crop; conditions: dose 2.52 g/a
How it was run: as §1

barnyardgrass [4] = assay: Test Example 4: herbicidal effect in foliage treatment; conditions: dose 3.2 g/a, three weeks after the application
How it was run: (§2)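 Post-emergence foliar spray of water-diluted emulsifiable concentrate at predetermined doses (g per are), applied to plants 14 days after sowing in sterile diluvial soil (greenhouse, 25 to 30° C). Visual scale rating of effect taken 3 weeks later.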

common chickweed [5] = assay: as above; conditions: dose 3.2 g/a, three weeks after the application
How it was run: as §2

water foxtail [6] = assay: as above; conditions: dose 3.2 g/a, three weeks after the application
How it was run: as §2

Italian ryegrass [7] = assay: as above; conditions: dose 3.2 g/a, three weeks after the application
How it was run: as §2

posumbu knotweed [8] = assay: as above; conditions: dose 3.2 g/a, three weeks after the application
How it was run: as §2

beadstraw = assay: as above; conditions: dose 3.2 g/a, three weeks after the application
How it was run: as §2

velvetleaf [9] = assay: as above; conditions: dose 3.2 g/a, three weeks after the application
How it was run: as §2

common ragweed [10] = assay: as above; conditions: dose 3.2 g/a, three weeks after the application
How it was run: as §2

large crabgrass [11] = assay: as above; conditions: dose 3.2 g/a, three weeks after the application
How it was run: as §2

giant foxtail [12] = assay: as above; conditions: dose 3.2 g/a, three weeks after the application
How it was run: as §2

common lambsquater [13] = assay: as above; conditions: dose 3.2 g/a, three weeks after the application
How it was run: as §2

redroot pigweed [14] = assay: as above; conditions: dose 3.2 g/a, three weeks after the application
How it was run: as §2

barnyardgrass [15] = assay: Test Example 3: herbicidal effects in soil treatment; conditions: dose 3.2 g/a
How it was run: (§3)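 Seeds were sown in sterilized diluvial soil and covered with about 1.5 cm of soil. Compounds, formulated as emulsifiable concentrates and diluted with water, were sprayed evenly over the soil surface at set doses in g/a. Herbicidal effect was scored on a rating scale three weeks later.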

common chickweed [16] = assay: as above; conditions: dose 3.2 g/a
How it was run: as §3

water foxtail [17] = assay: as above; conditions: dose 3.2 g/a
How it was run: as §3

Italian ryegrass [18] = assay: as above; conditions: dose 3.2 g/a
How it was run: as §3

posumbu knotweed [19] = assay: as above; conditions: dose 3.2 g/a
How it was run: as §3

velvetleaf [20] = assay: as above; conditions: dose 3.2 g/a
How it was run: as §3

common ragweed [21] = assay: as above; conditions: dose 3.2 g/a
How it was run: as §3

large crabgrass [22] = assay: as above; conditions: dose 3.2 g/a
How it was run: as §3

giant foxtail [23] = assay: as above; conditions: dose 3.2 g/a
How it was run: as §3

common lambsquater [24] = assay: as above; conditions: dose 3.2 g/a
How it was run: as §3

redroot pigweed [25] = assay: as above; conditions: dose 3.2 g/a
How it was run: as §3

barnyardgrass [26] = assay: Test Example 2: herbicidal effects during the vegetation period under submerged conditions; conditions: treatment during the vegetation period under submerged conditions; dose 2.52 g/a
How it was run: (§4)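 Barnyardgrass, bulrush and ducksalad were co-sown in alluvial soil flooded to 4 cm and grown in a greenhouse at 25 to 30° C. At the 1- or 2-leaf stage, water-diluted emulsifiable concentrates went onto the water surface at set doses (g/a). Herbicidal effect was scored three weeks later on a graded scale.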

bulrush [27] = assay: as above; conditions: treatment during the vegetation period under submerged conditions; dose 2.52 g/a
How it was run: as §4

ducksalad [28] = assay: as above; conditions: treatment during the vegetation period under submerged conditions; dose 2.52 g/a
How it was run: as §4

CCOC(=O)N(c1ccccc1CN1OCCOC1=O)S(=O)(=O)C(F)(F)F [III-2]
A: barnyardgrass, herbicidal effect (evaluation scale 0-5) (barnyardgrass [1]): 4 (mortality of at least 70% and less than 90%)
B: bulrush, herbicidal effect (evaluation scale 0-5) (bulrush [2]): 5 (mortality of 90% or above (nearly complete death))
C: ducksalad, herbicidal effect (evaluation scale 0-5) (ducksalad [3]): 5 (mortality of 90% or above (nearly complete death))
a: transplanted rice, effect on crop (evaluation scale 0-5) (transplanted rice): 0 (mortality of less than 5% (almost ineffective))
A: barnyardgrass, herbicidal effect (barnyardgrass [4]): 4 (mortality of at least 70% and less than 90%)
N: common chickweed, herbicidal effect (common chickweed [5]): 3 (mortality of at least 40% and less than 70%)
G: water foxtail, herbicidal effect (water foxtail [6]): 5 (mortality of 90% or above (nearly complete death))
H: Italian ryegrass, herbicidal effect (Italian ryegrass [7]): 3 (mortality of at least 40% and less than 70%)
M: posumbu knotweed, herbicidal effect (posumbu knotweed [8]): 4 (mortality of at least 70% and less than 90%)
O: beadstraw, herbicidal effect (beadstraw): 3 (mortality of at least 40% and less than 70%)
I: velvetleaf, herbicidal effect (velvetleaf [9]): 4 (mortality of at least 70% and less than 90%)
J: common ragweed, herbicidal effect (common ragweed [10]): 4 (mortality of at least 70% and less than 90%)
D: large crabgrass, herbicidal effect (large crabgrass [11]): 0 (mortality of less than 5% (almost ineffective))
E: giant foxtail, herbicidal effect (giant foxtail [12]): 0 (mortality of less than 5% (almost ineffective))
L: common lambsquater, herbicidal effect (common lambsquater [13]): 3 (mortality of at least 40% and less than 70%)
K: redroot pigweed, herbicidal effect (redroot pigweed [14]): 3 (mortality of at least 40% and less than 70%)
herbicidal effect, A: barnyardgrass (barnyardgrass [15]): 4 (mortality of at least 70% and less than 90%)
herbicidal effect, N: common chickweed (common chickweed [16]): 3 (mortality of at least 40% and less than 70%)
herbicidal effect, G: water foxtail (water foxtail [17]): 5 (mortality of 90% or above (nearly complete death))
herbicidal effect, H: Italian ryegrass (Italian ryegrass [18]): 3 (mortality of at least 40% and less than 70%)
herbicidal effect, M: posumbu knotweed (posumbu knotweed [19]): 4 (mortality of at least 70% and less than 90%)
herbicidal effect, I: velvetleaf (velvetleaf [20]): 5 (mortality of 90% or above (nearly complete death))
herbicidal effect, J: common ragweed (common ragweed [21]): 0 (mortality of less than 5% (almost ineffective))
herbicidal effect, D: large crabgrass (large crabgrass [22]): 0 (mortality of less than 5% (almost ineffective))
herbicidal effect, E: giant foxtail (giant foxtail [23]): 0 (mortality of less than 5% (almost ineffective))
herbicidal effect, L: common lambsquater (common lambsquater [24]): 5 (mortality of 90% or above (nearly complete death))
herbicidal effect, K: redroot pigweed (redroot pigweed [25]): 0 (mortality of less than 5% (almost ineffective))
A: barnyardgrass, herbicidal effect (evaluation scale 0-5) (barnyardgrass [26]): 3 (mortality of at least 40% and less than 70%)
B: bulrush, herbicidal effect (evaluation scale 0-5) (bulrush [27]): 5 (mortality of 90% or above (nearly complete death))
C: ducksalad, herbicidal effect (evaluation scale 0-5) (ducksalad [28]): 4 (mortality of at least 70% and less than 90%)

— patent publication US20120029187A1, “HALOALKYLSULFONANILIDE DERIVATIVE” (Nissan Chemical Industries, Ltd., priority 2009, published 2012)
